Results from PMC4302236, “Functional profile of a novel modulator of serotonin, dopamine, and glutamate neurotransmission” (Psychopharmacology, 2014).
Read-outs that look alike come from different tables or passages of the source.

Key:
Histamine H1 receptor = molecular target: T1, Histamine H1 receptor (Bos taurus, UniProt P30546); test: Histamine H1 receptor binding in bovine cerebellum (3H-pyrilamine)
T1 construct: tissue NovaScreen/Caliper/Perkin-Elmer; host or cells: bovine cerebellum
Protocol: Binding activity at a variety of receptor targets, including recombinant human serotonin receptors and rat dopamine D2 and human recombinant dopamine D4 receptors, was measured in vitro using standard radioligand displacement methods (NovaScreen/Caliper/Perkin-Elmer, Hanover, MD), to determine affinity. […] D2 receptor binding was measured at rat recombinant receptors expressed in Chinese hamster ovary (CHO) cells and using ^3H-methylspiperone as a radioligand and in rat striatum using ^3H-sulpiride as a radioligand. […] D4 receptor binding was measured at human recombinant receptor s expressed in CHO cells and using ^3 H-methylspiperone as a radioligand. D1 receptor binding at human recombinant receptor was measured in CHO cells using ^3H-SCH23390 as a radioligand. 5-HT2C receptor binding was measured in pig choroid plexus using ^3 H-methylsergide as a radioligand. Binding to alpha adrenergic receptors in the rat frontal cortex (alpha1A) or rat liver (alpha1B) was measured using ^3H-prazosin as a radioligand. Histamine H1 receptor binding was measured in bovine cere- bellum using ^3H-pyrilamine as a radioligand. […] The affinity constant (Ki) for each receptor subtype or inhibitory concentration 50 (IC50) for inhibition in functional assays was calculated.

5-HT2A receptor [1] = molecular target: T2, 5-HT2A receptor (Homo sapiens, UniProt P28223); test: Serotonin-mediated phosphatidylinositol (PI) turnover in HEK293 cells; format: cell-based; conditions: right-shifting the serotonin dose–response curve
Adrenergic, 1β = test system: T3, Adrenergic, 1β; test: NovaScreen broad selectivity panel at 100 nM, Adrenergic 1β; conditions: average of replicate tubes, read-out: % Inhibition of binding at 100 nM concentration, Adrenergic 1β
T3 construct: tissue NovaScreen/Caliper/Perkin-Elmer; host or cells: rat liver (inferred)

[2] = test system: muscarinic cholinergic receptors; test: Binding to muscarinic cholinergic receptors
DOI-induced headtwitch = test: Inhibition of DOI-induced headtwitch (in vivo 5-HT2A antagonism); conditions: mice, p.o., 30 min prior to DOI […] i.p.
Protocol: Inhibition of DOI-induced headtwitch was measured as a functional assay for the in vivo potency of the compound as an antagonist at 5-HT2A receptors. […] Headtwitches were then counted for 5 min, starting 10 min after DOI injection. An ID50 for inhibition of DOI-induced headtwitch was calculated using a four-parameter logistical fit (Excel Fit software, IDBS).

[3] = test system: serine 40 (S40)-phosphorylated tyrosine hydroxylase; test: Striatal tyrosine hydroxylase S40 phosphorylation state (CNSProfile immunoblotting); format: in vivo; conditions: mice, acute; ITI-007 3 mg/kg p.o., clozapine 5 i.p., aripiprazole 10 p.o., olanzapine 1 i.p., risperidone 3 p.o., haloperidol 1 i.p.; over 60 min; vs vehicle
Protocol: The effect of the selected compounds on the phosphorylation state of tyrosine hydroxylase (TH) was measured and quantitated as an indicator of the potential of each compound to perturb presynaptic dopamine synthesis in striatum. […] This technique preserves in vivo levels of brain protein phosphorylation ([Zhu et al. 2010]). […] Small aliquots of the homogenate were retained for protein determination by the bicinchoninic acid (BCA) protein assay method (Pierce Chemical Co., Rockford, IL). […] Immunoblotting was carried out using a phos-phorylation state-specific polyclonal antibody raised against […] (S40)-phosphorylated tyrosine hydroxylase (Chemicon, Temecula, CA) and a pan-TH monoclonal antibody for measuring the total protein levels (BD Biosciences, San Jose, CA). […] Antibody binding was detected and quantitated using a LiCor Odyssey infrared fluorescent detection system. Phosphorylation at each site detected by phospho-specific antibodies was quantified, normalized to total levels of the protein (non-phosphorylated), and expressed as percent±SEM of the level of phosphorylation in vehicle-treated control mice (N=6).

extracellular dopamine = test: In vivo microdialysis of dopamine and DOPAC in striatum and prefrontal cortex; conditions: rats
Protocol: On the day of the experiment (24–48 h after surgery), the microdialysis probes of each animal were connected via the use of flexible PEEK tubing to a microperfusion pump (Harvard Apparatus, PHD 2000 Holliston, MA). Artificial CSF, composed of 147 mM NaCl, 3 mM KCl, 1.2 mM CaCl2, and 1.2 mM MgCl2 was used to perfuse the probes (1.5 μl/min) beginning at 75 min prior to drug treatment. Baseline dialysate collection was begun for all rats 60 min prior to drug administration (t=−60 min) such that a total of […] were collected prior to drug treatment (t=0). […] A control group of rats (N=9) received only the 0.5 % methylcellulose vehicle solution, delivered orally (p.o.). All drug solutions were delivered in a volume of 1 ml/kg of body weight. Every 20 min for the following 3 h, dialysate was collected from both brain regions of each rat. Dialysates were collected into mini-vials containing 7.5 μl of 0.02 M formic acid using an automated fraction collector Univentor 820, Malta. Tubes containing dialysate samples were then frozen at −80 °C until analyzed by HPLC for levels of dopamine and the dopamine metabolite, DOPAC. […] Coronal sections were prepared of each rat brain to verify the position of the dialysis collection probes. Dopamine and DOPAC concentrations were determined in each sample using HPLC separation and electrochemical detection. An aliquot (20 μl) of each dialysate sample was injected onto the HPLC column by means of a refrigerated microsampler system, consisting of a syringe pump (Gilson, model 402), a multi-column injector (Gilson, model 233 XL), and a temperature regulator (Gilson, model 832). The chromatographic separation was performed on a reverse-phase 150 ×2.1 mm (3 μm) C18 Thermo BDS Hypersil column (Keystone Scientific). […] The mobile phase was run at a flow rate of 0.35 ml/min using an HPLC pump (Shimadzu, model LC-10AD vp). Dopamine and DOPAC were electrochemically detected using a potentiostat (Antec Leyden, model Intro) fitted with a glassy carbon electrode set a +500 mV versus Ag/AgCl (Antec, Leyden). Data were analyzed using Chromatography Data System software (Shimadzu, Class-VP, Japan) using an external standard method to quantify concentrations of dopamine and DOPAC. […] Drug effects were expressed as percentages of basal level (mean±SEM) within the same subject. Statistical analysis was performed using Sigmastat for Windows (SPSS Corporation). Drug effects were compared with baseline and vehicle control using a two-way ANOVA for repeated measurements followed by the Newman–Keuls post hoc test. […] For all tests, the level of statistical significance was set at p<0.05.

5-HT2A receptor [4] = molecular target: T2, 5-HT2A receptor; conditions: read-out: IC50, antagonism of serotonin-induced increase in calcium fluorescence; serotonin 30 nM
forelimb catalepsy = conditions: mouse, in vivo
Protocol: Forelimb catalepsy was measured using the bar grip test. Mice were placed in a Lucite mouse cage outfitted with a 3-mm diameter wooden rod suspended 4 cm from the floor of the cage. During testing, the mouse was allowed to grip the bar firmly with hind legs placed firmly on the floor of the cage. The mouse was required to maintain this posture for at least 10 s for a valid test session. Catalepsy was then quantitated by recording the latency (in seconds) to step both front paws down to the floor of the cage up to a maximum time of 120 s. If the mouse stepped off the bar immediately (less than 10 s), another attempt was made up to a maximum of ten attempts. The longest duration of immobility was recorded if none of the ten attempts were beyond 10 s. Catalepsy was measured for each mouse at 2, 3, 4, and 6 h after drug administration. Mean forelimb catalepsy time (in seconds) was calculated across each group and time point. Data were analyzed using ANOVA with Newman–Keuls post hoc test.

[5] = test system: phospho-serine (S) 9 GSK-3β; conditions: mouse, in vivo; for Phospho-S9 GSK-3β, PFC / Phospho-S9 GSK-3β, accumbens / Phospho-S9 GSK-3β, striatum: po
Protocol: Each brain was rapidly removed from the skull. Nucleus accumbens, striatum, and prefrontal cortex were dissected free-hand, frozen in liquid nitrogen, and stored at −80 °C until analyzed for phosphoprotein levels. […] Levels of phospho-GSK-3β were normalized for total levels of GSK-3β and expressed as a percent of phosphoprotein levels in the vehicle-injected controls.

T2 sequence (P28223 whole entry): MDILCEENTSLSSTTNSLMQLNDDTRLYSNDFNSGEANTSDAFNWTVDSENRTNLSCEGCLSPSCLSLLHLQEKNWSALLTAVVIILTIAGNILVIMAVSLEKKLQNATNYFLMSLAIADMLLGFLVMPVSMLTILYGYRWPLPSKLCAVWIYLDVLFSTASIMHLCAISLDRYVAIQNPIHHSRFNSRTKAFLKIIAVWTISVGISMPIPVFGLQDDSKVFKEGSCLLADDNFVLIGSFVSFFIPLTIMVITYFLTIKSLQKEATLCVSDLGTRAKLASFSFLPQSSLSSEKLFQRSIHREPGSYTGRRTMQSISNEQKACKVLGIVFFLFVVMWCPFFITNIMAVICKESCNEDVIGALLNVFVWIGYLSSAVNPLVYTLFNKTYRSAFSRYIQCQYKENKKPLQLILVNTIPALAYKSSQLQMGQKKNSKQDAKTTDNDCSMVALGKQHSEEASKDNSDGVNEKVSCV
T1 sequence (P30546 whole entry): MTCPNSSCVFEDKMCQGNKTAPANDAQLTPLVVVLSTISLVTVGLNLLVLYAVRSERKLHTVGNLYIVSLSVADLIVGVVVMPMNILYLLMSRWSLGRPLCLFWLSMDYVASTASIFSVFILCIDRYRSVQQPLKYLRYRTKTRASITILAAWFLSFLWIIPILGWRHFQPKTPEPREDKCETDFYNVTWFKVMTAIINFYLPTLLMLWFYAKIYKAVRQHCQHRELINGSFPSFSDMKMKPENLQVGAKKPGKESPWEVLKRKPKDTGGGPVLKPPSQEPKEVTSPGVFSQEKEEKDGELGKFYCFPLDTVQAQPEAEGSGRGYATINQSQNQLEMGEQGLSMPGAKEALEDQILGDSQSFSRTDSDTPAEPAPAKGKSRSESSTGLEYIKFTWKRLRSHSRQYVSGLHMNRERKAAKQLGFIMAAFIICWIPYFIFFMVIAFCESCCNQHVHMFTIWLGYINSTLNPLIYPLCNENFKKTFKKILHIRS
T3 sequence (P15823 whole entry): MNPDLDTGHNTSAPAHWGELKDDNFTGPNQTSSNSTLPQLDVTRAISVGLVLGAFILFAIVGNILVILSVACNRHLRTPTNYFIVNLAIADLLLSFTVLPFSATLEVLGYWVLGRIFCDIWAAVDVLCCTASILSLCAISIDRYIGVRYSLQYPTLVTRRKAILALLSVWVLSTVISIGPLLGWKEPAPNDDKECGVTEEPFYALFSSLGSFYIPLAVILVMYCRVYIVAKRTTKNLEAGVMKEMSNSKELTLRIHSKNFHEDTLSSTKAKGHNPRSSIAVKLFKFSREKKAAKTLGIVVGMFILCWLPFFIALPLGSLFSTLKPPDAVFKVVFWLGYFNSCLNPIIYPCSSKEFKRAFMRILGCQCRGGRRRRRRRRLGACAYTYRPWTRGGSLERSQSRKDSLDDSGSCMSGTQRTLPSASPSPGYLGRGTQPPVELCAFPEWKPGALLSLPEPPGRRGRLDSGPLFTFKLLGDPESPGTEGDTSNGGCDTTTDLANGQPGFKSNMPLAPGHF

With `CN1CCN2c3c(cccc31)[C@@H]1CN(CCCC(=O)c3ccc(F)cc3)CC[C@@H]12` [ITI-007, 1-(4-fluoro-phenyl)-4-((6bR,10aS)-3-methyl-2,3,6b,9,10,10a-hexahydro-1H,7H-pyrido[3′,4′:4,5]pyrrolo[1,2,3-de]quinoxalin-8-yl)-butan-1-one] the “Binding to histamine H1 receptors” value (Histamine H1 receptor) was “no significant binding”, the Ki (Histamine H1 receptor; radioligand displacement, unit inferred) was greater than 1000 nM and the “Effect on serotonin-mediated increases in phosphatidylinositol (PI) turnover” value (5-HT2A receptor [1]) was “antagonize”. The inhibition at 0.1 µM (Adrenergic, 1β) was 85.4%, the “Binding to muscarinic cholinergic receptors (e.g., M3 subclasses)” value [2] was “no significant binding” and the “ID50, inhibition of DOI-induced headtwitch” value (DOI-induced headtwitch) was 0.09 mg/kg. For the same molecule, the “Effect on TH phosphorylation at S40 in striatum” value [3] was “no significant effect”, the “DA efflux in mPFC” value (extracellular dopamine; 3 mg/kg p.o., p<0.05) was “significantly increased” and the “DA efflux in mPFC” value (extracellular dopamine; 10 mg/kg p.o., trend toward an increase) was “not statistically significant”. For the same molecule, the IC50 (5-HT2A receptor [4]) was 7 nM, the Cataleptogenic activity (forelimb catalepsy) was “no demonstrable cataleptogenic activity” and the “Forelimb catalepsy, bar grip test” value (forelimb catalepsy; po, 30 mg/kg) was “statistically significant increase in forelimb catalepsy”. For the same molecule, the “Effect on S9 GSK-3β phosphorylation in striatum at any dose tested” value [5] was “no significant effect”, the “Phospho-S9 GSK-3β, PFC” value ([5]; 3 mg/kg) was 103.4±3.1 % vehicle control and the “Phospho-S9 GSK-3β, accumbens” value ([5]; 3 mg/kg) was 122.9±8.6 % vehicle control. The “Phospho-S9 GSK-3β, striatum” value ([5]; 3 mg/kg) was 106.6±2.1 % vehicle control, the “Phospho-S9 GSK-3β, striatum” value ([5]; 10 mg/kg) was 98.2±5.1 % vehicle control and the “Phospho-S9 GSK-3β, PFC” value ([5]; 30 mg/kg) was 112.1±2.7 % vehicle control. For the same molecule, the “Phospho-S9 GSK-3β, accumbens” value ([5]; 30 mg/kg) was 105.5±2.2 % vehicle control and the “Phospho-S9 GSK-3β, striatum” value ([5]; 30 mg/kg) was 108.0±2.9 % vehicle control.
